In patent US7041292B1, “Treating prostate cancer with anti-ErbB2 antibodies” (Genentech, Inc., priority 1999, dated 2006):
Entries after “also recorded” stand apart in the source; their conditions may differ.

Experiments:
[1] = tested on: MDA-MB-175 cells; assay: MDA-MB-175 cell proliferation, crystal violet, 4 days, with or without rHRGβ1; assay type: cell-based, human; details: 10 μg/mL, not significantly reversed by exogenous HRG, FIG. 4A
Experimental: (§1) Experiment was carried out in medium containing 1% serum. Anti-ErbB2 antibodies or medium alone were added and the cells were incubated for 2 hours at 37° C. Subsequently rHRGβ1 (1 nM) or medium alone were added and the cells were incubated for 4 days. Monolayers were washed and stained/fixed with 0.5% crystal violet. To determine cell proliferation the absorbance was measured at 540 nm.
(§2) ErbB2 levels in MDA-MB-175 cells are 4–6 times higher than the level found in normal breast epithelial cells and the ErbB2-ErbB4 receptor is constitutively tyrosine phosphorylated in MDA-MB-175 cells. […] Inhibition of cell proliferation by 4D5 is dependent on the ErbB2 expression level (Lewis et al. Cancer Immunol. Immunother. 37:255–263 (1993)). […] However this effect […] by exogenous HRG.

[2] = tested on: EGF, TGF-α or HRG mediated activation of MAPK in MCF7 cells; assay: EGF, TGF-α or HRG activation of MAPK in MCF7 cells, Western blot; assay type: cell-based, human; details: 200 nM antibody; 1 nM EGF, 1 nM TGF-α or 0.2 nM HRG; FIG. 10
Experimental: Many growth factor receptors signal through the mitogen-activated protein kinase (MAPK) pathway. These dual specificity kinases are one of the key endpoints in signal transduction pathways that ultimately triggers cancer cells to divide.
MCF7 cells (10^5 cells/well) were plated in serum containing media in 12-well cell culture plates. The next day, the cell media was removed and fresh media containing 0.1% serum was added to each well. This procedure was then repeated the following day and prior to assay the media was replaced with serum-free binding buffer (Jones et al. J. Biol. Chem. 273:11667–74 (1998); and Schaefer et al. J. Biol. Chem. 274:859–66 (1999)). […] Cells were then treated with 1 nM EGF, 1 nM TGF-α or 0.2 nM HRG for 15 minutes. The reaction was stopped by aspirating the cell medium and then adding 0.2 mL SDS-PAGE sample buffer containing 1% DTT. MAPK activation was assessed by Western blotting using an anti-active MAPK antibody (Promega) as described previously (Jones et al. J. Biol. Chem. 273:11667–74 (1998)).

[3] = tested on: SK-BR-3 cells; assay: SK-BR-3 cell proliferation, crystal violet, 4 days, with or without rHRGβ1; assay type: cell-based, human; details: 1% serum, FIG. 4B
Experimental: as §1, §2

[4] = tested on: CWR22R human prostate cancer xenograft; assay: Androgen independent CWR22R prostate cancer xenograft; assay type: in vivo, mice; details: for effect on tumor growth / clinical activity: CWR22R androgen independent
Experimental: (§3) Male animals were inoculated s.c. with 1×10^6 LNCaP cells or minced tumor tissue from the androgen dependent CWR22, and females received the androgen independent sublines CWR22R, or CWR22SA1, CWRSA4, CWRSA6 which were obtained by selecting tumors for regrowth and increased serum PSA after androgen withdrawal. […] Control mice were given vehicle alone. Tumors were measured every 3–4 days with vernier calipers, and tumor volumes were calculated by the formula: p/6 × larger diameter × (smaller diameter)^2. Animals with palpably established tumors of at least 65 mm^3 in volume were designated to treatment groups.
Pairwise differences between the tumor volumes of the treatment groups were compared over time using a permutation test.
(§4) The effect of an antibody, which blocks ligand activation of an ErbB receptor, on human prostate cancer was assessed.
All injections were given IP (N=5).
(§5) Both antibodies were dosed at 20 mg/kg twice per week.

[5] = tested on: CWR22 human prostate cancer xenograft; assay: Androgen dependent CWR22 prostate cancer xenograft; assay type: in vivo, mice; details: antibody 20 mg/kg twice weekly
Excerpt: Animal studies: Four to six week old nude athymic BALB/c male and female mice were obtained from the National Cancer Institute-Frederick Cancer Center and maintained in pressurized ventilated caging at the Sloan-Kettering Institute. Male animals were inoculated s.c. with 1×10^6 LNCaP cells or minced tumor tissue from the androgen dependent CWR22, and females received the androgen independent sublines CWR22R, or CWR22SA1, CWRSA4, CWRSA6 which were obtained by selecting tumors for regrowth and increased serum PSA after androgen withdrawal. […] Control mice were given vehicle alone. Tumors were measured every 3–4 days with vernier calipers, and tumor volumes were calculated by the formula: p/6 × larger diameter × (smaller diameter)^2. Animals with palpably established tumors of at least 65 mm^3 in volume were designated to treatment groups.
Pairwise differences between the tumor volumes of the treatment groups were compared over time using a permutation test. […] The statistic used to test the hypothesis was the sum of the squared differences between mean tumor volume summed over all time points.
as §4, §5

[6] = tested on: MSKPC6 androgen independent prostate xenograft; assay: Androgen independent MSKPC6 prostate xenograft, dose response; assay type: in vivo; details: IP loading 6, 20 or 60 mg/kg then 3, 10 or 30 mg/kg twice weekly, FIG. 25
Experimental: Dose response studies were carried out using rhuMAb 4D5 in the CWR22R and MSKPC6 (Agus et al. Cancer Research 59:4761–4764 (1999)) androgen independent prostate xenografts. Animals were dosed IP with: control; 6 mg/kg loading dose then 3 mg/kg twice weekly; 20 mg/kg loading dose then 10 mg/kg twice weekly; or 60 mg/kg loading dose then 30 mg/kg twice weekly.

[7] = tested on: CWRSA6 human prostate cancer xenograft; assay: Androgen independent CWRSA6 prostate cancer xenograft; assay type: in vivo, mice
Experimental: as §3
Statistical Analysis. Pairwise differences between the tumor volumes of the treatment groups were compared over time using a permutation test. […] The statistic used to test the hypothesis was the sum of the squared differences between mean tumor volume summed over all time points.

[8] = tested on: LNCaP human prostate cancer xenograft; assay: Androgen dependent LNCaP prostate cancer xenograft; assay type: in vivo, mice; details: end of the treatment period, n=6
Excerpt: Animal studies: Four to six week old nude athymic BALB/c male and female mice were obtained from the National Cancer Institute-Frederick Cancer Center and maintained in pressurized ventilated caging at the Sloan-Kettering Institute. Male animals were inoculated s.c. with 1×10^6 LNCaP cells or minced tumor tissue from the androgen dependent CWR22, and females received the androgen independent sublines CWR22R, or CWR22SA1, CWRSA4, CWRSA6 which were obtained by selecting tumors for regrowth and increased serum PSA after androgen withdrawal. All lines were injected together with reconstituted basement membrane (Matrigel; Collaborative Research, Bedford, Mass.) as described previously (Nagabhushan et al. Cancer Res. 56:3042–3046 (1996); Wainstein et al. Cancer Res. 54:6049–6052 (1994); and Sato et al. Cancer Res. 57:1584–1589 (1997)). To maintain serum testosterone levels, male mice were implanted with 12.5-mg sustained release testosterone pellets (Innovative Research of American, Sarasota, Fla.) s.c. before receiving the tumor cell inoculation. […] Control mice were given vehicle alone. Tumors were measured every 3–4 days with vernier calipers, and tumor volumes were calculated by the formula: p/6 × larger diameter × (smaller diameter)^2. Animals with palpably established tumors of at least 65 mm^3 in volume were designated to treatment groups. […]

Molecule	growth inhibitory effect on MDA-MB-175 cells [1]	block of EGF, TGF-α and HRG mediated activation of MAPK [2]	growth inhibitory effect on SK-BR-3 cells [3]	effect on tumor growth / clinical activity [4]	effect on tumor growth / clinical activity [5]	effect on tumor growth [6]	effect on tumor growth / clinical activity ([7]; CWRSA6 androgen independent)	mean tumor volume [8] [mm^3]	mean tumor volume ([4]; CWR22R, end of the treatment period, n=5)	mean tumor volume ([7]; CWRSA6, end of the treatment period, n=5)
2C4: murine monoclonal antibody binding the extracellular domain of ErbB2, blocks ligand activation; ATCC HB12697 [Mutant 2C4]	strong growth inhibitory effect	significantly blocks	no inhibitory effect	has clinical activity; also recorded: suppresses the growth of androgen-independent tumor xenografts in a dose dependent manner	has clinical activity	suppresses the growth of androgen-independent tumor xenografts in a dose dependent manner	has clinical activity	–	–	–
CC(=O)O[C@H]1C(=O)[C@@]2(C)[C@H]([C@H](OC(=O)c3ccccc3)[C@]3(O)C[C@H](OC(=O)[C@H](O)[C@@H](NC(=O)c4ccccc4)c4ccccc4)C(C)=C1C3(C)C)[C@]1(OC(C)=O)CO[C@@H]1C[C@@H]2O [paclitaxel, reference compound]	–	–	–	–	–	–	–	233	1,273 mm^3	1,496 mm^3
PEG-Fab: Fab' fragment of rhuMAb 2C4 expressed in E. coli and conjugated to 20 kD branched polyethylene glycol (conjugate, chains of the INN, looked up, Fab' 20 kD branched PEG) VH: EVQLVESGGGLVQPGGSLRLSCAASGFTFTDYTMDWVRQAPGKGLEWVADVNPNSGGSIYNQRFKGRFTLSVDRSKNTLYLQMNSLRAEDTAVYYCARNLGPSFYFDYWGQGTLVTVSS VL: DIQMTQSPSSLSASVGDRVTITCKASQDVSIGVAWYQQKPGKAPKLLIYSASYRYTGVPSRFSGSGSGTDFTLTISSLQPEDFATYYCQQYYIYPYTFGQGTKVEIK	–	–	–	inhibits tumor growth	–	–	–	–	–	–
